Where a SMILES comes first, the peptide text is derived from it. [ ]: non-standard residue; d: D form.
Tested on: rat pituitary cells
Test: Isolated rat pituitary cell culture system: antagonism of LH-RH-stimulated LH release
Assay type: cell-based
Experimental: Cyclic hexapeptides of the present invention are evaluated as antagonists of LH-RH in an in vitro pituitary cell culture system. This assay system is described in Vale and Brant, Methods Enzymol, 37, 82 (1975), hereby incorporated by reference for this purpose.
For purposes of illustration, the data for cyclo-[Tyr-D-Trp-Leu-Arg-Trp-Pro] (5) in this assay are presented.
At a dose range of 10^-5 to 10^-9 M, compound 5 was tested in combination with a single dose of LHRH (luteinizing hormone release hormone) on rat pituitary cells in vitro for 60 minutes.

CC(C)C[C@@H]1NC(=O)[C@@H](Cc2c[nH]c3ccccc23)NC(=O)[C@H](Cc2ccc(O)cc2)NC(=O)[C@@H]2CCCN2C(=O)[C@H](Cc2c[nH]c3ccccc23)NC(=O)[C@H](CCCNC(=N)N)NC1=O [Compound 5, cyclo-(Tyr-D-Trp-Leu-Arg-Trp-Pro)] (cyclo(LRWPY[dW]))
reduction of LH release (all lower doses of compound 5 (below 10^-5 M) in the presence of 5×10^-7, 10^-7, 5×10^-8 and 10^-8 M LHRH): essentially ineffective
antagonism to LHRH (compound 5 at 10^-5 M, LHRH at 10^-6, 5×10^-7, 5×10^-8, 10^-8, 5×10^-9, 10^-9 and 5×10^-10 M, 60 minutes): significantly antagonistic
reduction of LH release (compound 5 at 10^-7, 10^-8 and 10^-9 M in the presence of 10^-6 M LHRH, 60 minutes): significantly reduced LH release
effect on LH release (compound alone) (compound 5 at 10^-7 M, no LHRH): does not affect LH release
overall conclusion on LHRH antagonism (greatest antagonistic effect at lower doses of LHRH): antagonistic to LHRH
inhibition of LH release, dose relation (in the presence of 5×10^-9, 10^-9 and 5×10^-10 M LHRH, greatest antagonism at 10^-9 M LHRH): significant dose related inhibition
